Source: patent US8932842B2, “Aminopyridine dimer compounds, compositions and related methods for neuronal nitric oxide synthase inhibition” (Northwestern University, priority 2009, dated 2015)
“Also recorded” adds a separate entry of the source. Read-outs that look alike come from different tables or passages of the source.

What was measured:
bovine eNOS = target: T1, bovine eNOS (Bos taurus, UniProt P29473); experiment: NOS enzyme assay (hemoglobin capture), eNOS; format: biochemical
T1 construct: made in house; host or cells: E. coli
Description: (§1) As above, the activities of the target compounds of Schemes 8-9 were determined against three NOS isozymes: rat nNOS, bovine eNOS and marine iNOS using known literature methods.
(§2) Enzyme Assays. […] The four enzyme isoforms were recombinant enzymes overexpressed (in E. coli) and isolated as reported. […] The formation of nitric oxide was measured using a well-known hemoglobin capture assay, as described previously in the literature. […] Ki=IC50/(1+[S]/Km) (1)

murine macrophage iNOS = target: T2, murine macrophage iNOS (Mus musculus, UniProt P29477); experiment: NOS enzyme assay (hemoglobin capture), iNOS; format: biochemical
T2 construct: made in house; host or cells: E. coli
Description: as §1, §2

rat nNOS = target: T3, rat nNOS (Rattus norvegicus, UniProt P29476); experiment: NOS enzyme assay (hemoglobin capture), nNOS; format: biochemical; details: for Ki: rat nNOS; for activity/potency for nNOS in words: purified enzyme assay; for n/e: ratio of Ki (eNOS) to Ki (nNOS); for n/e / n/i: Tables 1-3; for n/i: ratio of Ki (iNOS) to Ki (nNOS)
T3 construct: made in house; host or cells: E. coli
Description: as §1, §2

[1] = target: T4, nNOS in 293T cells overexpressing nNOS (293T/nNOS cells) (Rattus norvegicus, UniProt P29476); experiment: Cell-based assay: inhibition of nNOS in 293T/nNOS cells, nitrite by Griess reagent; details: for activity in the cell-based assay in words: 293T/nNOS cells, FIG. 4; for membrane penetration ability / bioavailability based on cell-based assay: inferred from 293T/nNOS cell-based assay
T4 construct: expressed in transfected cells; host or cells: 293T cells (293T/nNOS)
Excerpt: After eight hours, the amount of nitrite in culture media was quantified with the Griess reagent. Each data point is an average of two independent experiments.

[2] = Table 4, read-out: Ki (μM) eNOS
[3] = Table 4, read-out: Ki (μM) iNOS
[4] = Table 4, read-out: Ki (μM) nNOS
[5] = Ki calculated from directly measured IC50 values, read-out: Ki eNOS
[6] = Ki calculated from directly measured IC50 values, read-out: Ki iNOS
[7] = Ki calculated from directly measured IC50 values, read-out: Ki nNOS

## Cc1cc(N)nc(CCc2cc(CCc3cc(C)cc(N)n3)cc(N3CCN(C)CC3)c2)c1 [HH027]
Bovine eNOS; [2]
  Ki: 97.4 µM
Murine macrophage iNOS; [3]
  Ki: 138 µM
Rat nNOS; Table 4
  Selectivity n/e: 17
  Selectivity n/i: 24
Rat nNOS; [4]
  Ki: 5.75 µM

## Cc1cc(N)nc(CCc2cccc(CCc3cc(C)nc(N)c3)c2)c1 [3h, 4-(3-(2-(6-Amino-4-methylpyridin-2-yl)ethyl)phenethyl)-6-methylpyridin-2-amine]
Bovine eNOS; [5]
  Ki: 4.2 µM
[1]
  activity in the cell-based assay in words: almost no activity
Murine macrophage iNOS; [6]
  Ki: 2.73 µM
Rat nNOS
  selectivity for nNOS over eNOS: 111 fold
  selectivity for nNOS over iNOS: 71.8 fold
  activity/potency for nNOS in words: highly potent
  n/e: 111
  n/i: 71.8
Rat nNOS; [7]
  Ki: 0.038 µM

## Cc1cc(N)nc(CCc2cc(CCCN)cc(CCc3cc(C)cc(N)n3)c2)c1 [HH026]
Bovine eNOS; [2]
  Ki: 12.1 µM
Murine macrophage iNOS; [3]
  Ki: 32.5 µM
Rat nNOS; Table 4
  Selectivity n/e: 22
  Selectivity n/i: 60
Rat nNOS; [4]
  Ki: 0.54 µM

## Cc1cc(N)nc(CCc2ccc3ccc(CCc4cc(C)cc(N)n4)cc3c2)c1 [3c, 6,6′-(2,2′-(Naphthalene-2,7-diyl)bis(ethane-2,1-diyl))bis(4-methylpyridin-2-amine)]
Bovine eNOS; [5]
  Ki: 1.52 µM
Murine macrophage iNOS; [6]
  Ki: 2.05 µM
Rat nNOS; [7]
  Ki: 0.102 µM
Rat nNOS
  n/e: 14.9
  n/i: 20.1

## Cc1cc(N)nc(CCc2ccc3ccc(CCc4cc(C)nc(N)c4)cc3c2)c1 [3d, 4-(2-(7-(2-(6-Amino-4-methylpyridin-2-yl)ethyl)naphthalen-2-yl)ethyl)-6-methylpyridin-2-amine]
Rat nNOS
  activity/potency for nNOS in words: little activity
Rat nNOS; [7]
  Ki: > 0.5 µM

## Cc1cc(N)nc(CCc2cncc(CCc3cc(C)cc(N)n3)c2)c1 [3j, 6,6′-(2,2′-(Pyridine-3,5-diyl)bis(ethane-2,1-diyl))bis(4-methylpyridin-2-amine)]
[1]
  membrane penetration ability / bioavailability based on cell-based assay: very good membrane penetration ability; also recorded: improved bioavailability

## Cc1cc(C)nc(NCc2ccc3cc(CNc4cc(C)cc(C)n4)ccc3c2)c1 [3a, N,N′-(Naphthalene-2,6-diylbis(methylene))bis(4,6-dimethylpyridin-2-amine)]
Rat nNOS
  activity/potency for nNOS in words: poor activity
Rat nNOS; [7]
  Ki: > 11.5 µM

## Cc1cc(N)nc(CCc2cc(CCc3cc(C)cc(N)n3)cc(N3CCNCC3)c2)c1 [HH025]
Bovine eNOS; [2]
  Ki: 63.2 µM
Murine macrophage iNOS; [3]
  Ki: 36.7 µM
Rat nNOS; Table 4
  Selectivity n/e: 30
  Selectivity n/i: 17
Rat nNOS; [4]
  Ki: 2.1 µM

## Cc1cc(CCc2cccc(CCc3cc(C)nc(N)c3)c2)cc(N)n1 [3i, 4,4′-(2,2′-(1,3-Phenylene)bis(ethane-2,1-diyl))bis(6-methylpyridin-2-amine)]
Rat nNOS
  activity/potency for nNOS in words: poor activity
Rat nNOS; [7]
  Ki: 2.25 µM

## Cc1cc(N)nc(CCc2cccc(CCc3cc(C)cc(N)n3)c2)c1 [3g, 6,6′-(2,2′-(1,3-Phenylene)bis(ethane-2,1-diyl))bis(4-methylpyridin-2-amine)]
[1]
  activity in the cell-based assay in words: almost no activity

## Cc1cc(N)nc(CCc2ccc(CCCN)c(CCc3cc(C)cc(N)n3)c2)c1 [HH032]
Bovine eNOS; [2]
  Ki: 33.4 µM
Murine macrophage iNOS; [3]
  Ki: 21.9 µM
Rat nNOS; Table 4
  Selectivity n/e: 303
  Selectivity n/i: 199
Rat nNOS; [4]
  Ki: 0.11 µM

## Cc1cc(N)nc(CCc2ccc3cc(CCc4cc(C)cc(N)n4)ccc3c2)c1 [3b, 6,6′-(2,2′-(Naphthalene-2,6-diyl)bis(ethane-2,1-diyl))bis(4-methylpyridin-2-amine)]
Bovine eNOS; [5]
  Ki: 1.74 µM
Murine macrophage iNOS; [6]
  Ki: 2.27 µM
Rat nNOS
  selectivity for nNOS over eNOS: 7 fold
  selectivity for nNOS over iNOS: 9 fold
  n/e: 7.22
  n/i: 9.42
Rat nNOS; [7]
  Ki: 0.241 µM

## Cc1cc(N)nc(CCc2cncc(CCc3cc(C)nc(N)c3)c2)c1 [3k, 4-(2-(5-(2-(6-Amino-4-methylpyridin-2-yl)ethyl)pyridin-3-yl)ethyl)-6-methylpyridin-2-amine]
Bovine eNOS; [5]
  Ki: 16.1 µM
[1]
  membrane penetration ability / bioavailability based on cell-based assay: very good membrane penetration ability
Murine macrophage iNOS; [6]
  Ki: 1.91 µM
Rat nNOS
  selectivity for nNOS over eNOS: 156 fold
  activity/potency for nNOS in words: highly potent
  n/e: 156
  n/i: 19
Rat nNOS; [7]
  Ki: 0.103 µM

## Cc1cc(N)nc(CCc2ccc(CCc3cc(C)nc(N)c3)cc2)c1 [3f, 4-(4-(2-(6-Amino-4-methylpyridin-2-yl)ethyl)phenethyl)-6-methylpyridin-2-amine]
Rat nNOS
  activity/potency for nNOS in words: inactive
Rat nNOS; [7]
  Ki: 0.167 µM

## Cc1cc(N)nc(CCc2cc(C#N)cc(CCc3cc(C)cc(N)n3)c2)c1 [HH006, 3,5-bis(2-(6-amino-4-methylpyridin-2-yl)ethyl)benzonitrile]
Bovine eNOS; [2]
  Ki: 26.4 µM
Murine macrophage iNOS; [3]
  Ki: 13.4 µM
Rat nNOS; Table 4
  Selectivity n/e: 472
  Selectivity n/i: 239
Rat nNOS
  activity/potency for nNOS in words: good potency and selectivity
Rat nNOS; [4]
  Ki: 0.056 µM

## Cc1cc(N)nc(CCc2cc(CN)cc(CCc3cc(C)cc(N)n3)c2)c1 [HH030, 6,6′-((5-(aminomethyl)-1,3-phenylene)bis(ethane-2,1-diyl))bis(4-methylpyridin-2-amine)]
Bovine eNOS; [2]
  Ki: 11.7 µM
Murine macrophage iNOS; [3]
  Ki: 6.31 µM
Rat nNOS; Table 4
  Selectivity n/e: 221
  Selectivity n/i: 119
Rat nNOS; [4]
  Ki: 0.053 µM

## Cc1cc(N)nc(CCc2ccc(CCc3cc(C)cc(N)n3)cc2)c1 [3e]
Bovine eNOS; [5]
  Ki: 2.39 µM
Murine macrophage iNOS; [6]
  Ki: 2.41 µM
Rat nNOS
  selectivity for nNOS over eNOS: 25 fold
  n/e: 24.6
  n/i: 24.8
Rat nNOS; [7]
  Ki: 0.097 µM
